The numbers were not newly measured in US7217837B2, “Method for producing organic acid” (Mitsubishi Chemical Corporation, priority 2002, dated 2007), which cites them from elsewhere.

The conditions of data set [1]: Table 1; literature values.
The conditions of data set [2]: Table 1; for pKa1: literature values (Pyne Organic Chemistry; Handbook of Chemistry and Physics); for pKa2: literature values.
The conditions of data set [3]: water, Table 1, literature values.

For the compound `NC(=O)C[C@H](N)C(=O)O` [Asparagine], the “Isoelectric point pI” value in data set [1] is 5.41. The pKa1 in data set [2] is 2.02. The “Solubility at 25° C.” value in data set [3] is given as 3.11 g/100 gH2O.

`N[C@@H](CC(=O)O)C(=O)O` [Aspartic acid]: the “Isoelectric point pI” value in data set [1] was 2.98.

With `N[C@@H](CCC(=O)O)C(=O)O` [Glutamic acid], in data set [1], the “Isoelectric point pI” value is on record as 3.08.

For `NC(=O)CC[C@H](N)C(=O)O` [Glutamine], the “Solubility at 25° C.” value in data set [3] was 3.6 g/100 gH2O.

As to `O=C(O)CCCC(=O)O` [Glutaric acid], in data set [2], the pKa2 is 5.41 and the pKa1 was 4.31.

For the compound `N[C@@H](Cc1c[nH]cn1)C(=O)O` [Histidine], the “Isoelectric point pI” value in data set [1] is given as 7.64. Moreover, the “Solubility at 25° C.” value in data set [3] is 4.29 g/100 gH2O.

Regarding `CC[C@H](C)[C@H](N)C(=O)O` [Isoleucine], in data set [1], the “Isoelectric point pI” value is 6.04. For the same compound, the pKa1 in data set [2] was 2.32. Besides, the “Solubility at 25° C.” value in data set [3] is 4.117 g/100 gH2O.

Regarding `CC(C)C[C@H](N)C(=O)O` [Leucine], the “Solubility at 25° C.” value in data set [3] was 2.19 g/100 gH2O.

In the case of `O=C(O)CC(O)C(=O)O` (stereo not drawn) [Malic acid], in data set [2], the pKa2 is listed as 5.11 and the pKa1 is given as 3.40.

In the case of `CSCC[C@H](N)C(=O)O` [Methionine], the “Isoelectric point pI” value in data set [1] is reported as 5.74. Also, in data set [2], the pKa1 is 2.28. Further, the “Solubility at 25° C.” value in data set [3] is 3.35 g/100 gH2O.

For `N[C@@H](Cc1ccccc1)C(=O)O` [Phenylalanine], the “Isoelectric point pI” value in data set [1] is reported as 5.91. Moreover, in data set [2], the pKa1 is recorded as 2.58. In addition, in data set [3], the “Solubility at 25° C.” value is listed as 2.965 g/100 gH2O.

For `O=C(O)CCCCCCC(=O)O` [Suberic acid], the pKa1 in data set [2] was 4.52.

Turning to `N[C@@H](Cc1c[nH]c2ccccc12)C(=O)O` [Tryptophan], the “Isoelectric point pI” value in data set [1] was 5.88. The pKa1 in data set [2] is on record as 2.38. Besides, in data set [3], the “Solubility at 25° C.” value is given as 1.14 g/100 gH2O.

Regarding `N[C@@H](Cc1ccc(O)cc1)C(=O)O` [Tyrosine], in data set [1], the “Isoelectric point pI” value is listed as 5.66.

On to `CC(C)[C@H](N)C(=O)O` [Valine], for which the “Isoelectric point pI” value in data set [1] is listed as 6. In addition, in data set [2], the pKa1 was 2.29. Further, the “Solubility at 25° C.” value in data set [3] is given as 8.85 g/100 gH2O.
